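Cultured in 96-well plates, cells were exposed to test compound for 48 hours across five concentrations. The concentration for 50% growth inhibition is given as GI50. At the TGI there is no net growth.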 A value given as a limit tells only on which side of the number the result lay.

What all share (experiment): NCI anticancer screen, dose series, 48 h
In test [1] the test system is OVCAR-4 ovarian.
Test [2] deals with OVCAR-3 ovarian.
Test [3] has as its system NCI/ADR-RES ovarian.
In test [4] the test system is CAKI-1 renal.
Test [5] relates to MOLT-4 leukemia.
Test [6] has as its system U251 CNS.
For test [7], the system named is ACHN renal.
For test [8], the system named is HS 578T breast.
In test [9] the test system is SN12C renal.
For test [10], the system named is DU-145 prostate.

Turning to `CCCCCCNC(=O)Oc1ccc(/C(=C(/C)Cc2ccc(OC)cc2)c2ccc(OCCCN(C)C)cc2)cc1`, the GI50 in test [1] is 13.1 µM; in [2] it was 15.2 µM; in [3], 15.8 µM; in test [4], 14.5 µM; in [5] it was 12.3 µM; in [6], 13 µM. Besides, the GI50 is 16.4 µM in test [7], 15.5 µM in [8], 14.7 µM in test [9] and 16.8 µM in test [10]. Further, the TGI in test [1] was 26.7 µM; in test [2], 29.3 µM; in [3], 31.3 µM; in test [4] it was 27.8 µM; in test [5], 28.2 µM; in [6] it was 26.5 µM. For the same molecule, the TGI in [7] came out at 30.4 µM; in test [8], 35.7 µM; in [9] it was 28.3 µM; in [10], 31.3 µM.

With `N[C@@H]1C(=O)N2C(C(=O)OC(c3ccccc3)c3ccccc3)=C(CCl)CS[C@H]12`, the GI50 in [1] is 44.8 µM; in [2], 26 µM; in test [3], 38.2 µM; in test [4], above 100 µM; in test [5], 11.3 µM; in test [6] it was 29.2 µM. In addition, the GI50 in test [7] is 40.2 µM; in [8], 46.8 µM; in [9], 41 µM; in test [10], 15 µM. Further, the TGI is above 100 µM in [1]; 75.6 µM in [2]; above 100 µM in test [3]; above 100 µM in test [4]; above 71.2 µM in [5]; above 78.9 µM in test [6]. Also, the TGI in [7], in [8], in test [9] and in [10] was above 100 µM throughout.

As to `NC1=NC(c2ccc(Cl)cc2)N(c2ccc(S(N)(=O)=O)cc2)C(N)=N1` (stereo not drawn), the TGI in test [1], in test [2], in [3], in test [4], in test [5] and in test [6] was above 100 µM each time. Further, the TGI in test [7], in test [8], in [9] and in test [10] was above 100 µM in each case.

Take `FC(F)(F)c1ccc(-c2cnc(-n3cc(COCCN4CCCCC4)nn3)nc2NC2CCCCCC2)cc1`: the GI50 is 3.11 µM in test [1]; 3.98 µM in test [2]; 3.85 µM in test [3]; 3.51 µM in test [4]; 3.73 µM in [5]; 3.5 µM in [6]. Moreover, the GI50 in test [7] is 4.53 µM; in test [8], 3.91 µM; in test [9], 3.98 µM; in test [10], 4.25 µM. Besides, the TGI is 6.35 µM in [1]; 7.48 µM in test [2]; 7.66 µM in test [3]; 7.33 µM in test [4]; 9.26 µM in test [5]; 6.87 µM in test [6]. Moreover, the TGI in test [7] turned out to be 8.39 µM; in test [8], 10.6 µM; in test [9], 7.56 µM; in test [10], 7.94 µM.

For `COc1ccc2c(C3(c4cn(C)c5cc(OC)ccc45)C(=O)Nc4ccc(Cl)cc43)cn(C)c2c1`, the GI50 in test [1] is 3.35 µM; in test [2], 4.31 µM; in test [3], 3.9 µM; in test [4] it was 2.04 µM; in test [5] it was 2.58 µM; in test [6], 3.81 µM. In addition, the GI50 was 3.32 µM in test [7], 3.5 µM in test [8], 1.91 µM in test [9] and 4.84 µM in [10]. The TGI in test [1] was above 100 µM; in [2], 18.4 µM; in test [3], above 100 µM; in [4], above 100 µM; in test [5], 8.01 µM; in test [6] it was above 100 µM. Also, the TGI in [7] was above 100 µM; in [8] it was 87.9 µM; in test [9] it was 4.63 µM; in test [10] it was above 100 µM.

Turning to `Cc1ccc(C(NC(=O)c2ccccc2)c2ccc3cccnc3c2O)cc1` (stereo not drawn), the GI50 is 0.275 µM in test [1]; 0.351 µM in test [2]; 0.189 µM in test [3]; 0.328 µM in [4]; 0.332 µM in test [5]; 0.249 µM in [6]. Further, the GI50 in test [7] is 0.285 µM; in test [8], 1.25 µM; in test [9], 0.451 µM; in [10] it was 0.442 µM. Further, the TGI in test [1] was above 52 µM; in test [2] it was 18.2 µM; in test [4], above 50.7 µM; in test [5] it was above 70.2 µM; in test [6] it was 18.4 µM; in test [7], 15.4 µM. The TGI is above 74.7 µM in test [8], 48.7 µM in test [9] and 41.9 µM in test [10].

As to `Cc1cc(Nc2nc(-c3cccnc3)nc3ccccc23)n[nH]1`, the GI50 was 2.05 µM in test [1]; 3.74 µM in [2]; 5.13 µM in test [3]; 0.325 µM in test [4]; above 57.2 µM in test [5]; 1.25 µM in test [6]. Further, the GI50 is 0.527 µM in test [7], 0.364 µM in [8], 3.21 µM in test [9] and 10.7 µM in test [10]. Also, the TGI is above 100 µM in test [1]; above 100 µM in [2]; above 92.7 µM in test [3]; above 100 µM in test [5]; above 53.1 µM in test [6]; above 100 µM in test [7]. In addition, the results for the TGI in [8], in [9] and in test [10] were 3.74 µM, above 100 µM and above 100 µM, respectively.

Regarding `COC(=O)C1OC2(CCCC3CC32)O[C@H]1C(=O)OC` (stereo partly drawn), the TGI in test [1], in test [2], in [3], in test [4], in test [5] and in test [6] was above 100 µM each time. For the same molecule, the TGI in test [7], in test [8], in [9] and in [10] was above 100 µM each time.

These data come from PubChem BioAssay (NCI).
